Assay results taken from EP4755878A1, “PHOTOCHROMIC COMPOUND, PHENOL DERIVATIVE, CURABLE COMPOSITION, OPTICAL ARTICLE, LENS, AND EYEGLASS” (TOKUYAMA CORPORATION, priority 2023, dated 2025).

Tests used:
[1] = Photochromic properties of photochromic laminate (plastic lens) made by coating method; type: physicochemical; conditions: for Color developing density at 23°C: absorbance difference after 240 seconds irradiation at 23°C; for Color developing density at 35°C: absorbance difference after 240 seconds irradiation at 35°C; for Maximum absorption wavelength: after color development, second absorption wavelength (lower line of pair)
From the text: First, the photochromic compound obtained in Example 1 above, a photoinitiator, and polymerizable compounds were mixed to obtain a curable composition.
As the polymerizable compounds, a blend of the following radically-polymerizable monomers in combination was used.
• Polyethylene glycol dimethacrylate (average molecular weight: 736): 42 parts by mass • Polyethylene glycol dimethacrylate (average molecular weight: 536): 12 parts by mass • Trimethylolpropane trimethacrylate: 38 parts by mass • γ-Methacryloyloxypropyltrimethoxysilane: 2 parts by mass • Glycidyl methacrylate: 1 part by mass.
Note that in the curable composition, the photochromic compound obtained in Example 1 above was added to be 0.25 mmol taking the total amount of the radically-polymerizable monomers as 100 g. The following were used as additives.
(stabilizer, Irganox 245): 1 part by mass Bis(1,2,2,6,6-pentamethyl-4-piperidyl) sebacate: 3 parts by mass Leveling agent from DuPont Toray Specialty Materials K.K. (L7001): 0.1 parts by mass.
Note that the above-mentioned additives are described with blending ratios taking a total of the radically-polymerizable monomers as 100 parts by mass.
Using this curable composition, a photochromic laminate was obtained by a lamination process described below with the polymerization described below being carried out.
First, a thiourethane plastic lens with a center thickness of 2 mm and a refractive index of 1.60 was prepared as an optical substrate. Note that the thiourethane plastic lens had been alkaline-etched beforehand in a 10% aqueous sodium hydroxide solution at 50°C for 5 minutes, and then thoroughly washed with distilled water.
A spin coater (1H-DX2, manufactured by MIKASA CO., LTD) was used to coat a surface of the above-mentioned plastic lens with a moisture-curable primer (product name: TR-SC-P, manufactured by Tokuyama Corporation) at a rotation speed of 70 rpm for 15 seconds, followed by at 1000 rpm for 10 seconds. Then, about 2 g of the photochromic curable composition obtained as above was spin-coated at a rotation speed of 60 rpm for 40 seconds, followed by at 600 rpm for 10 to 20 seconds so as to achieve a photochromic coating layer with a film thickness of 40 µm.
The lens having the surface coated with the photochromic curable composition (photochromic coating layer) was irradiated with light for 90 seconds in a nitrogen gas atmosphere using a metal halide lamp with an output of 200 mW/cm^2 to cure the coating film. The coating was then further heated at 110°C for 1 hour to produce a photochromic laminate with a photochromic layer.
Photochromic laminates were produced using the photochromic compounds obtained in Examples 2 to 19 in the same manner as in Example 20.
Photochromic laminates were obtained in the same manner as in Example 20 using photochromic compounds represented by the following formulas (A) to (F). [drawing 143] [drawing 144] [drawing 145] [drawing 146] [drawing 147] [drawing 148] [drawing 149] [drawing 150]
The resulting photochromic laminates were evaluated by the methods described below.
Table 3 summarizes the results of Examples 20, 32, and 34, and Comparative Examples 1 to 6, and Table 4 summarizes the results of Examples 21 to 31, 33, and 35 to 38. The relationship between the fading half-life at 23°C and the color development ratio at the higher temperature of the photochromic laminates according to Examples and Comparative Examples are shown in a graph in FIG. 1.
Photochromic laminates were formed using the photochromic compound obtained in Examples 61 to 71 in the same manner as in Example 20.

[2] = Photochromic properties of photochromic cured product made by kneading method; type: physicochemical; conditions: for Maximum absorption wavelength: 1 mm, after color development, second absorption wavelength (lower line of pair); for Color developing density at 23°C: absorbance difference after 240 seconds irradiation at 23°C; for Color developing density at 35°C: absorbance difference after 240 seconds irradiation at 35°C
From the text: First, the photochromic compound obtained in Example 1, additives, and polymerizable compounds were mixed to obtain a curable composition. As the polymerizable compounds, a blend of the following polymerizable monomers in combination was used. • 1,3-Bis(isocyanatomethyl)cyclohexane: 36.7 parts by mass Pentaerythritol tetrakis(3-mercaptopropionate): 39.4 parts by mass • Polyoxyethylene polyoxypropylene lauryl ether (WONDERSURF 140 from Aoki Oil Industrial Co., Ltd.): 17.4 parts by mass 1-Decanethiol: 2.8 parts by mass • RX-1 prepared according to the method described in Patent Document 12: 3.8 parts by mass Note that in the curable composition, the photochromic compound was added to be 0.106 mmol taking the total amount of the polymerizable monomers as 100 g.
The following additives were used. Dimethyltin dichloride: 0.05 parts by mass • Irganox 245 from BASF Japan Ltd.: 0.1 parts by mass • 2-Ethylhexyl 4-methoxycinnamate: 0.6 parts by mass
The prepared curable composition was sufficiently degassed, and then injected into a glass mold provided with a gap of 1 mm, and the curable composition was polymerized via casting polymerization. […] After the polymerization, the cured product was removed from the glass mold, to obtain photochromic cured product having a thickness of 1 mm. The resulting photochromic cured product was evaluated in the same manner as in Example 23.
(Examples 51 to 60, and Comparative Examples 11 to 14) Photochromic cured products were formed using the photochromic compound shown in Table 6 in the same manner as in Example 50.

[3] = Photochromic properties of photochromic layer (binder sheet) made by binder method; conditions: for Color developing density at 23°C: absorbance difference after 240 seconds irradiation at 23°C; for Color developing density at 35°C: absorbance difference after 240 seconds irradiation at 35°C; for Maximum absorption wavelength: after color development, second absorption wavelength (lower line of pair)
Method: This is the maximum absorption wavelength after color development determined by a spectrophotometer manufactured by Otsuka Electronics Co., Ltd. (instantaneous multichannel photo detector MCPD3000) and was used as an index of a color tone upon color development.
This is a difference between an absorbance {ε(240)} after irradiation with light at the above-mentioned maximum absorption wavelength at 23°C for 240 seconds and an absorbance ε(0) when not irradiated with light, and was used as an index of a color developing density. The higher this value is, the better photochromic property is.
This is a difference between an absorbance {ε(240)} after irradiation with light at first and second absorption wavelengths at 35°C for 240 seconds and an absorbance ε(0) when not irradiated with light, and was used as an index of a color developing density. The higher this value is, the better photochromic property is.
Color developing density at 35°C (A35) /color developing density at 23°C (A23) × 100(%). The higher this value is, the smaller the difference in color developing density between the higher temperature and the lower temperature is, and the smaller the temperature dependence is.
This is the period of time required for the absorbance at a maximum absorption wavelength of a sample to decrease to 1/2 of {ε(240)-ε(0)}, when light irradiation is stopped after the sample had been irradiated with light at 23°C for 240 seconds, and was used as an index of a color fading rate. The shorter this period of time is, the higher the color fading rate is.
A binder sheet was made according to the following method. […] As the first and second optical sheets, polycarbonate sheets with a thickness of 400 µm were used.
Note that the photochromic compound was added to be 0.25 mmol relative to 100 parts by mass of the terminally non-reactive urethaneurea resin.

| Color developing density at 23°C ([1]; first absorption wavelength) | Color developing density at 23°C ([1]; second absorption wavelength) | Color developing density at 35°C ([1]; first absorption wavelength) | Color developing density at 35°C ([1]; second absorption wavelength) | Maximum absorption wavelength [1] | Maximum absorption wavelength [2] | Color developing density at 23°C ([2]; first absorption wavelength) | Color developing density at 23°C ([2]; second absorption wavelength) | Color developing density at 35°C ([2]; first absorption wavelength) | Color developing density at 35°C ([2]; second absorption wavelength) | Color developing density at 23°C ([3]; first absorption wavelength) | Color developing density at 23°C ([3]; second absorption wavelength) | Color developing density at 35°C ([3]; first absorption wavelength) | Color developing density at 35°C ([3]; second absorption wavelength) | Maximum absorption wavelength [3] | Structure (SMILES) |
| --- | --- | --- | --- | --- | --- | --- | --- | --- | --- | --- | --- | --- | --- | --- | --- |
| 0.91 - | 1.33 - | 0.69 - | 1.02 - | 581 nm | 588 nm | 0.94 - | 1.36 - | 0.73 - | 1.06 - | 0.94 - | 1.34 - | 0.68 - | 1.00 - | 580 nm | CCCCOc1ccc(C2(c3ccc(OC)cc3)C=Cc3c4c(c5ccc(C)cc5c3O2)-c2ccc(N3CCOc5ccccc53)cc2C4(CCCC(F)(F)F)CCCC(F)(F)F)cc1 (centres unmarked) [Formula (3-3)] |
| 0.86 - | 1.06 - | 0.64 - | 0.81 - | 616 nm | 621 nm | 0.89 - | 1.09 - | 0.67 - | 0.84 - | 0.88 - | 1.08 - | 0.63 - | 0.80 - | 613 nm | COc1ccc(C2(c3ccc(OC)cc3)C=Cc3c4c(c5ccc(OC)cc5c3O2)-c2ccc(N(C)c3ccccc3)cc2C4(C)C)cc1 [Formula (1-7)] |
| 0.68 - | 1.14 - | 0.48 - | 0.81 - | 626 nm | 631 nm | 0.69 - | 1.17 - | 0.49 - | 0.84 - | 0.68 - | 1.16 - | 0.47 - | 0.80 - | 627 nm | COc1ccc(C2(c3ccc(N4CCOCC4)cc3)C=Cc3c4c(c5ccc(OC)cc5c3O2)-c2ccc(N(C)c3ccccc3)cc2C42CCCCCCC2)cc1 (centres unmarked) [Formula (4-3)] |
| 1.30 - | 0.71 - | 0.90 - | 0.49 - | 622 nm | 625 nm | 1.35 - | 0.72 - | 0.95 - | 0.50 - | 1.33 - | 0.72 - | 0.89 - | 0.49 - | 622 nm | CCCOc1ccc(C2(c3ccc(OC)cc3)C=Cc3c4c(c5cc6c(cc5c3O2)OC(C)(C)S6)-c2ccc(N3CCCc5ccccc53)cc2C4(CCCOC)CCCOC)cc1 (centres unmarked) [Formula (7-4)] |
| 0.75 - | 0.99 - | 0.52 - | 0.69 - | 610 nm | 618 nm | 0.78 - | 1.02 - | 0.55 - | 0.70 - | 0.77 - | 1.01 - | 0.51 - | 0.69 - | 609 nm | COc1ccc(C2(c3ccc(OC)cc3)C=Cc3c4c(c5ccc(Oc6ccccc6)cc5c3O2)-c2ccc(N(c3ccccc3)c3ccccc3)cc2C4(CCCCF)CCCCF)cc1 [Formula (8-2)] |
| 0.69 - | 0.96 - | 0.48 - | 0.65 - | 579 nm | 586 nm | 0.76 - | 0.98 - | 0.53 - | 0.69 - | 0.75 - | 0.98 - | 0.50 - | 0.67 - | 580 nm | CCCCOc1ccc(C2(c3ccc(OCCCC)cc3)C=Cc3c4c(c5ccc(OC)cc5c3O2)-c2ccc(C)cc2C4(C)C)cc1 [Formula (B), reference compound] |
| 0.69 - | 0.87 - | 0.44 - | 0.55 - | 569 nm | 578 nm | 0.72 - | 0.91 - | 0.48 - | 0.61 - | 0.71 - | 0.90 - | 0.46 - | 0.58 - | 569 nm | COc1ccc(C2(c3ccc(OC)cc3)C=Cc3c4c(c5ccc(OC)cc5c3O2)-c2ccccc2C4(C)C)cc1 [Formula (A), reference compound] |
| 0.78 - | 1.14 - | 0.57 - | 0.86 - | 617 nm | 625 nm | 0.80 - | 1.18 - | 0.62 - | 0.94 - | 0.80 - | 1.17 - | 0.58 - | 0.88 - | 617 nm | COc1ccc(C2(c3ccc(OC)cc3)C=Cc3c4c(c5ccc(OC)cc5c3O2)-c2ccc(N3CCCCC3)cc2C4(C)C)cc1 [Formula (D), reference compound] |
| 1.44 - | 1.24 - | 1.16 - | 1.01 - | 621 nm |  |  |  |  |  |  |  |  |  |  | CCCCCCC1(CCCCCC)c2cc(N(c3ccccc3)c3ccccc3)ccc2-c2c1c1c(c3cc(OC)c(-c4ccccc4N4CCOCC4)cc23)OC(c2ccc(OC)cc2)(c2ccc(OC)c(F)c2)C=C1 (centres unmarked) [Formula (70-4)] |
